Measurements from US20190314379A1, “METHODS OF USING CANNABINOID CB2 RECEPTOR AGONIST COMPOSITIONS TO SUPPRESS AND PREVENT OPIOID TOLERANCE AND WITHDRAWAL IN A SUBJECT” (Indiana University Research and Technology Corporation, priority 2018, published 2019).
Entries after “also recorded” stand apart in the source; their conditions may differ.

How the values were obtained:
[1] = system: paclitaxel-induced mechanical allodynia; test: Paclitaxel-induced mechanical allodynia (electronic von Frey); assay type: in vivo, mouse; settings: for mechanical allodynia, chronic phase 1 treatment: 3 mg/kg per day i.p.×12 days
Procedure: (§1) In all studies, the experimenter was blinded to the treatment condition, and mice were randomly assigned to experimental conditions. Paclitaxel (4 mg/kg i.p.) was administered four times on alternate days (cumulative dose, 16 mg/kg i.p.) to induce neuropathic pain as described previously by our group (Deng et al., 2015). Control mice received an equal volume of cremophor-vehicle. Development of paclitaxel-induced allodynia was assessed on day 0, 4, 7, 11, and 14.
(§2) Effects of pharmacologic manipulations were assessed at 30 minutes after drug administration during the maintenance phase of paclitaxel-induced neuropathy (i.e., beginning day 18-20 after initial paclitaxel injection).
(§3) In experiments 2 and 3, pharmacologic manipulations were performed once daily for 12 consecutive days in each of the two phases of chronic treatment. Four days separated phase 1 and phase 2 chronic dosing in all studies comprising two phases of chronic dosing. Experiments 2 and 3 were performed concurrently using overlapping cohorts that were tested with a single vehicle (phase 1), vehicle (phase 2) group.
(§4) We then assessed the antiallodynic efficacy of chronic systemic administration of vehicle or morphine (10 mg/kg per day i.p.×12 days) administered during phase 2 in the same animals. Responsiveness to mechanical and cold stimulation was evaluated on treatment days 1, 4, 8, and 12 during phase 1 and on treatment days 16, 19, 23, and 27 during phase 2 (i.e., phase 2 started on day 16).
(§5) In experiment 4, we evaluated the impact of coadministration of morphine (10 mg/kg i.p.×12 days) with a submaximal dose of LY 2828360 (0.1 mg/kg per day i.p.×12 days) in WT and CB2 KO mice.
Paw withdrawal thresholds (grams) to mechanical stimulation were measured in duplicate for each paw using an electronic von Frey anesthesiometer supplied with a 90-g probe (model Alemo 2390-5; IITC, Woodland Hills, Calif.) as described previously. Mice were placed on an elevated metal mesh table and allowed to habituate under individual, inverted plastic cages to the testing platform for at least 20 minutes until exploratory behavior had ceased. Alter the habituation period, a force was applied to the midplantar region of the hind paw with a semiflexible tip connected to the anesthesiometer. Mechanical stimulation was terminated when the animal withdrew its paw, and the value of the applied force was recorded in grams. Mechanical paw withdrawal thresholds were obtained in duplicate for each paw and are reported as the mean of duplicate determinations from each animal, averaged across animals, for each group.

human CB2 [2] = target: T1, human CB2 (Homo sapiens, UniProt P34972); test: Myo-inositol phosphate-1 (IP1) accumulation, HEK hCB2; assay type: cell-based; set-up: expressed in transfected cells; settings: via human CB2
mouse CB2 receptors [3] = target: T2, mouse CB2 receptors (Mus musculus, UniProt P47936); test: Forskolin-stimulated cAMP accumulation (cyclase), HEK mCB2; assay type: cell-based; settings: for Emax: read-out: Cyclase Emax
T2 construct: expressed in transfected cells

mouse CB2 receptors [4] = target: T2, mouse CB2 receptors; test: Arrestin recruitment (PathHunter CHO K1CNR2, enzyme complementation); assay type: cell-based
mouse CB2 receptors [5] = target: T2, mouse CB2 receptors; test: Phosphorylated ERK1/2 detection, HEK mCB2; assay type: cell-based; settings: for Emax: read-out: pERK1/2 Emax
[6] = system: joint pain induced by intra-articular monoiodoacetic acid; settings: 0.3 mg/kg p.o.; cited from earlier work
[7] = system: paclitaxel-induced cold allodynia; test: Paclitaxel-induced cold allodynia (acetone); assay type: in vivo, mouse; settings: for cold allodynia, chronic phase 1 treatment: 3 mg/kg per day i.p.×12 days
Procedure: as §1, §2, §3, §4, §5
Response time (seconds) spent attending to (i.e., elevating, licking, biting, or shaking) the paw stimulated with acetone (Sigma-Aldrich) was measured in triplicate for each paw to assess cold allodynia as previously published. An acetone bubble (approximately 5 to 6 p.1) formed at the end of a blunt 1-ml syringe hub was gently applied to the plantar surface of the hind paw. Care was taken not to apply mechanical stimulation to the hind paw with the syringe itself. The total time the animal spent attending to the acetone-stimulated paw (i.e., elevation, shaking, or licking) was recorded over 1 minute after acetone application. Acetone was applied three times to each paw with a 3-minute interval between applications. Values for each animal were calculated as the mean of six determinations of acetone responsiveness derived from each mouse.

human CB2 [8] = target: T1, human CB2; test: Forskolin-stimulated cAMP accumulation (cyclase), HEK hCB2; assay type: cell-based; set-up: expressed in transfected cells; time of inhibition of forskolin-stimulated cAMP accumulation: dose or concentration left out as unconfirmed
osteoarthritic knee pain = settings: cited from earlier work
human CB2 [9] = target: T1, human CB2; test: Phosphorylated ERK1/2 detection, HEK hCB2; assay type: cell-based; set-up: expressed in transfected cells; settings: for Emax: read-out: pERK1/2 Emax
[10] = CB2KO mice, 3 mg/kg per day i.p.×12 days after phase 1 morphine
[11] = CB2KO mice, LY2828360 0.1 mg/kg with morphine 10 mg/kg per day×12 days
[12] = CB2KO mice, LY2828360 phase 1, morphine phase 2
[13] = WT mice, 3 mg/kg per day i.p.×12 days after phase 1 morphine
[14] = WT mice, LY2828360 0.1 mg/kg per day i.p.×12 days with morphine 10 mg/kg per day×12 days
[15] = WT mice, LY2828360 0.1 mg/kg with morphine 10 mg/kg per day×12 days
[16] = WT mice, LY2828360 3 mg/kg per day×12 days phase 1, morphine 10 mg/kg×12 days phase 2
[17] = WT mice, acute systemic (i.p.), dose-dependent
[18] = WT mice, doses lower than 0.3 mg/kg i.p.
[19] = WT mice, phase 1, 3 mg/kg per day i.p.×12 days

T1 sequence (P34972 whole entry): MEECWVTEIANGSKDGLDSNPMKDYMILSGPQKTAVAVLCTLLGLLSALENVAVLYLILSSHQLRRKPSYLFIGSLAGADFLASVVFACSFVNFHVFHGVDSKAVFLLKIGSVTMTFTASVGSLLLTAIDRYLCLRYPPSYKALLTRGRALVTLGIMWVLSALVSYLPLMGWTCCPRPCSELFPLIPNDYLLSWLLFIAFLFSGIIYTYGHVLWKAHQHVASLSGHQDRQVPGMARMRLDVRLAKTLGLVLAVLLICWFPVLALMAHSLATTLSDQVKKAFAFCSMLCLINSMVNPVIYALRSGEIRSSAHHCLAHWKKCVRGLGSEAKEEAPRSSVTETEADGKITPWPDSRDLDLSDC
T2 sequence (P47936 whole entry): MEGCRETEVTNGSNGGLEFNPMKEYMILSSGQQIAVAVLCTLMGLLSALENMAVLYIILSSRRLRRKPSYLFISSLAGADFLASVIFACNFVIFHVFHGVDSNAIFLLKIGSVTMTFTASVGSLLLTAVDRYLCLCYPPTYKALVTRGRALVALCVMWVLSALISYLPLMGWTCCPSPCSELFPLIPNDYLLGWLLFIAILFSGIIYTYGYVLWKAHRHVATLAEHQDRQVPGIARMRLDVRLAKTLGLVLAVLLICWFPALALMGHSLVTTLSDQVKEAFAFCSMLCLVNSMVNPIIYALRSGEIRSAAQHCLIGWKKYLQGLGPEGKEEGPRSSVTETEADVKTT

Cc1nc(N2CCN(C)CC2)c2nc(-c3ccccc3Cl)n(C3CCOCC3)c2n1 [LY2828360, 8-(2-chlorophenyl)-2-methyl-6-(4-methylpiperazin-1-yl)-9-(tetrahydro-2H-pyran-4-yl)-9H-purine]
time for responsiveness to mechanical stimulation to return to baseline ([1]; 3 mg/kg i.p. acute): 1 days | mechanical allodynia, chronic phase 1 treatment ([1]; CB2KO mice): failed to suppress | mechanical responsiveness, phase 2 treatment of morphine-tolerant mice [1, 10]: did not alter responsiveness to mechanical or cold stimulation | mechanical allodynia, coadministration with morphine [1, 11]: sustained antiallodynic efficacy was absent | development of tolerance to antiallodynic effect of phase 2 morphine, mechanical [1, 12]: did not block the development of morphine tolerance | paclitaxel-induced mechanical allodynia, high dose ([1]; WT mice, 3 mg/kg i.p. acute): fully reversed paclitaxel-induced allodynia and normalized responses to pre-paclitaxel baseline levels | mechanical allodynia, chronic phase 1 treatment ([1]; WT mice): markedly suppressed paclitaxel-induced mechanical and cold allodynia throughout the observation interval | mechanical allodynia, phase 2 treatment of morphine-tolerant mice [1, 13]: fully reversed paclitaxel-induced allodynia and normalized responsiveness to pre-paclitaxel baseline levels | tolerance to phase 2 treatment, mechanical [1, 13]: tolerance did not develop | mechanical allodynia, coadministration with morphine [1, 14]: fully reversed paclitaxel-induced mechanical allodynia and normalized responses to pre-paclitaxel baseline levels throughout the observation period | development of morphine tolerance under coadministration, mechanical [1, 15]: morphine tolerance failed to develop | development of tolerance to antiallodynic effect of phase 2 morphine, mechanical [1, 16]: prevented the development of morphine tolerance | paclitaxel-induced mechanical allodynia, acute dose response [1, 17]: suppressed | mechanical allodynia at low doses vs cremophor-vehicle controls [1, 18]: neuropathic pain was prominent | stability of antiallodynic efficacy (tolerance), mechanical [1, 19]: stable throughout phase 1 treatment | IP1 accumulation (human CB2 [2]): did not affect IP1 accumulation | forskolin-stimulated cAMP after PTX treatment (mouse CB2 receptors [3]; mCB2, 1 μM, PTX 300 ng/ml overnight): failed to affect cyclase levels at all time points | time of efficacious inhibition of forskolin-stimulated adenylyl cyclase (mouse CB2 receptors [3]; mCB2, 1 μM, time course): 30 min | inhibition of forskolin-stimulated cAMP accumulation in presence of SR144528 (mouse CB2 receptors [3]; mCB2, 30-minute incubation, 1 μM SR144528 (SR2)): completely blocked | inhibition of forskolin-stimulated cAMP accumulation, concentration response (mouse CB2 receptors [3]; mCB2, 5 minutes): had no effect | inhibition of forskolin-stimulated cAMP accumulation, concentration response (mouse CB2 receptors [3]; mCB2, 30 minutes): potent, efficacious, and CB2 receptor mediated | Emax (mouse CB2 receptors [3]; mouse CB2, 05 mins incubation): 18.9% | EC50 (mouse CB2 receptors [3]; mouse CB2, 30 mins incubation, read-out: Cyclase EC50): 13.6 nM | Emax (mouse CB2 receptors [3]; mouse CB2, 30 mins incubation): 53.4% | arrestin recruitment (mouse CB2 receptors [4]; CHO cells expressing mCB2, 90-minute drug incubation): failed to do so | Emax (mouse CB2 receptors [4]; mouse CB2, 90 mins incubation, read-out: Arrestin Emax): 97.9% | ERK1/2 phosphorylation time course (mouse CB2 receptors [5]; mCB2, 1 μM): had no effect at 5- and 10-minute time points but increased ERK1/2 phosphorylation at 20, 30, and 40 minutes | ERK1/2 phosphorylation after PTX treatment (mouse CB2 receptors [5]; mCB2, 1 μM, PTX): abolished the 20-minute phosphorylation of ERK1/2 | ERK1/2 phosphorylation, concentration response (mouse CB2 receptors [5]; mCB2, 5 minutes): failed to affect pERK1/2 levels | ERK1/2 phosphorylation, concentration response (mouse CB2 receptors [5]; mCB2, 20 minutes): increased ERK1/2 phosphorylation | effect on ERK1/2 phosphorylation in presence of SR144528 (mouse CB2 receptors [5]; mCB2, 20 minutes, SR144528 1 μM): blocked | Emax (mouse CB2 receptors [5]; mouse CB2, 05 mins incubation): 4.1% | EC50 (mouse CB2 receptors [5]; mouse CB2, 20 mins incubation, read-out: pERK1/2 EC50): 339 nM | Emax (mouse CB2 receptors [5]; mouse CB2, 20 mins incubation): 43.6% | efficacy compared with diclofenac [6]: equivalent efficacy | reversal of pain, incapacitance testing [6]: dose-related reversal of pain | time for responsiveness to cold stimulation to return to baseline ([7]; 3 mg/kg i.p. acute): 3 days | cold allodynia, chronic phase 1 treatment ([7]; CB2KO mice): failed to suppress | cold responsiveness, phase 2 treatment of morphine-tolerant mice [7, 10]: did not alter responsiveness to mechanical or cold stimulation | cold allodynia, coadministration with morphine [7, 11]: sustained antiallodynic efficacy was absent | development of tolerance to antiallodynic effect of phase 2 morphine, cold [7, 12]: did not block the development of morphine tolerance | paclitaxel-induced cold allodynia, high dose ([7]; WT mice, 3 mg/kg i.p. acute): fully reversed paclitaxel-induced allodynia and normalized responses to pre-paclitaxel baseline levels | cold allodynia, chronic phase 1 treatment ([7]; WT mice): markedly suppressed paclitaxel-induced mechanical and cold allodynia throughout the observation interval | cold allodynia, phase 2 treatment of morphine-tolerant mice [7, 13]: fully reversed paclitaxel-induced allodynia and normalized responsiveness to pre-paclitaxel baseline levels | tolerance to phase 2 treatment, cold [7, 13]: tolerance did not develop | cold allodynia, coadministration with morphine [7, 14]: normalized cold responsiveness on days 1 and 4 | development of morphine tolerance under coadministration, cold [7, 15]: morphine tolerance failed to develop | development of tolerance to antiallodynic effect of phase 2 morphine, cold [7, 16]: prevented the development of morphine tolerance | paclitaxel-induced cold allodynia, acute dose response [7, 17]: suppressed | cold allodynia at low doses vs cremophor-vehicle controls [7, 18]: neuropathic pain was prominent | stability of antiallodynic efficacy (tolerance), cold [7, 19]: stable throughout phase 1 treatment | inhibition of forskolin-stimulated cAMP accumulation (human CB2 [8]; hCB2, 5 minutes of treatment): had no effect | inhibition of forskolin-stimulated cAMP accumulation (human CB2 [8]; hCB2, 35 minutes): potent and efficacious agonist | inhibition of forskolin-stimulated cAMP accumulation in presence of SR144528 (human CB2 [8]; hCB2, 35 minutes): completely blocked | time of inhibition of forskolin-stimulated cAMP accumulation (human CB2 [8]; hCB2, time course): 35 min | inhibition of cAMP accumulation after PTX pretreatment (human CB2 [8]; hCB2, time course, PTX): abolished this effect | Emax (human CB2 [8]; human CB2, 35 mins incubation, read-out: Cyclase Emax): 42.8% | risks or discomforts in human subjects (osteoarthritic knee pain; osteoarthritic pain, up to 80 mg for 4 weeks): No specific risks or discomforts | primary endpoint vs placebo / relief of osteoarthritis pain (osteoarthritic knee pain; patients with osteoarthritic knee pain, phase 2): ineffective in relieving pain associated with osteoarthritis; also recorded: did not differ | ERK1/2 phosphorylation time course (human CB2 [9]; hCB2, 1 pM): increased ERK1/2 phosphorylation after 30 minutes, but not at 5 minutes | ERK1/2 phosphorylation after PTX treatment (human CB2 [9]; hCB2, 1 pM, PTX): abolished ERK1/2 phosphorylation | stimulated phosphorylation of ERK1/2 in presence of SR144528 (human CB2 [9]; hCB2, SR144528 (1 pM)): completely blocked | Emax (human CB2 [9]; human CB2, 05 mins incubation): 22.1% | Emax (human CB2 [9]; human CB2, 30 mins incubation): 32.3%
